Assay results published in ChEMBL document CHEMBL6103668, “In-Silico Screening-Based Discovery of New Natural eEF2K Inhibitors with Neuritogenic Activity” (ACS Med Chem Lett, 2025).

Assays:
[1] = tested on: HT-22; assay: Cytotoxicity against mouse HT-22 cells assessed as cell viability at 1.25 to 5 uM incubated for 24 hrs by CCK8 assay; type: toxicity, cell-based; settings: ht-22, 24 h, dose 1.25-5 µM
[2] = tested on: N2a; assay: Cytotoxicity against mouse Neuro2a cells assessed as cell viability at 1.25 to 5 uM incubated for 24 hrs by CCK8 assay; type: toxicity, cell-based; settings: dose 1.25-5 µM
[3] = tested on: N2a; assay: Induction of neuronal differentiation in mouse Neuro2a cells assessed as neurite formation at 5 uM incubated for 48 hrs by DAPI staining based fluorescence microscopic analysis; type: functional, cell-based
[4] = tested on: N2a; assay: Induction of neuronal differentiation in mouse Neuro2a cells assessed as neurite elongation at 5 uM incubated for 48 hrs by DAPI staining based fluorescence microscopic analysis; type: functional, cell-based

| SMILES | Activity [1] | also measured |
| --- | --- | --- |
| OC[C@H]1O[C@@H](Oc2c(O)cc(O)cc2[C@@H]2[C@@H](c3ccc(O)cc3)[C@H](c3ccc(O)cc3)[C@H]2c2cc(O)cc(O)c2O[C@@H]2O[C@H](CO)[C@@H](O)[C@H](O)[C@H]2O)[C@H](O)[C@@H](O)[C@@H]1O | Non-toxic | – |
| C[C@@H]1O[C@@H](Oc2ccc(CNC(=S)NCc3ccc(O[C@@H]4O[C@@H](C)[C@H](O)[C@@H](O)[C@H]4O)cc3)cc2)[C@H](O)[C@H](O)[C@H]1O | Non-toxic | – |
| C[C@@H]1O[C@@H](OC[C@H]2O[C@@H](Oc3c(-c4ccc(O)cc4)oc4cc(O)cc(O)c4c3=O)[C@H](O)[C@@H](O)[C@@H]2O)[C@H](O)[C@H](O)[C@H]1O [NICOTIFLOROSIDE] | Non-toxic | – |
| C=C[C@H]1[C@H](O[C@@H]2O[C@H](CO)[C@@H](O)[C@H](O)[C@H]2O)OC=C(C(=O)O)[C@H]1CC(=O)O | Non-toxic | – |
| CC[C@H](CC[C@@H](C)[C@H]1CC[C@H]2[C@@H]3CC=C4C[C@@H](O[C@@H]5O[C@H](CO)[C@@H](O)[C@H](O)[C@H]5O)CC[C@]4(C)[C@H]3CC[C@]12C)C(C)C [SITOGLUSIDE] | Non-toxic | – |
| COc1cc([C@@H]2Oc3c(OC)cc(CCCO[C@@H]4O[C@H](CO)[C@@H](O)[C@H](O)[C@H]4O)cc3[C@H]2CO)ccc1O | Non-toxic | – |
| COc1cc2oc(-c3ccc(O)cc3)cc(=O)c2c(O)c1[C@@H]1O[C@H](CO)[C@@H](O)[C@H](O)[C@H]1O[C@@H]1O[C@H](CO)[C@@H](O)[C@H](O)[C@H]1O | Non-toxic | – |
| O=c1cc(-c2ccccc2)oc2cc(O[C@@H]3O[C@H](CO[C@@H]4O[C@H](CO)[C@@H](O)[C@H](O)[C@H]4O)[C@@H](O)[C@H](O)[C@H]3O)c(O)c(O)c12 | Non-toxic | – |
| O=C(O)[C@H]1O[C@@H](O[C@@H]2[C@@H](O)[C@@H](O)CO[C@H]2c2c(O)cc3oc(-c4ccc(O)c(O)c4)cc(=O)c3c2O)[C@H](O)[C@@H](O)[C@H]1O | Non-toxic | – |
| COc1ccc([C@@H]2c3cc(OC)c(O)cc3C[C@@H](C)[C@H]2C)cc1O | Non-toxic | – |
| O=C(O)C1=CC[C@@H]2C(C(=O)O)=CO[C@@H](O[C@@H]3O[C@H](CO)[C@@H](O)[C@H](O)[C@H]3O)[C@H]12 [IXOSIDE] | Non-toxic | – |
| O=C(O)[C@H]1O[C@@H](O[C@@H]2[C@@H](O)[C@H](O)[C@@H](CO)O[C@H]2c2c(O)cc3oc(-c4ccc(O)c(O)c4)cc(=O)c3c2O)[C@H](O)[C@@H](O)[C@H]1O | Non-toxic | – |
| C=C(c1[nH]c2ccccc2c1CN1C/C(=C/C)[C@@H]2CC(=O)c3[nH]c4ccccc4c3C[C@H]1C2C(=O)OC)[C@H]1CCN(C)C/C1=C\C (stereo partly specified) | Non-toxic | Activity [2]: Toxic; Activity [3]: Active; Significant Efficacy Observed; Activity [4]: Active; Significant Efficacy Observed |
| O=c1c(O[C@@H]2O[C@H](CO)[C@@H](O)[C@H](O)[C@H]2O)c(-c2ccc(O)c(O)c2)oc2cc(O)cc(O)c12 [ISOQUERCETIN] | Non-toxic | Activity [2]: Toxic; Activity [3]: Active; Significant Efficacy Observed; Activity [4]: Active; Significant Efficacy Observed |
| C[N+](C)(C)[C@H](Cc1c[nH]c2ccccc12)C(=O)[O-] [HYPAPHORINE] | Non-toxic | – |
| C[C@@H]1CC[C@]2(C(=O)O)CC[C@]3(C)C(=CC[C@@H]4[C@@]5(C)CC[C@H](O[C@@H]6O[C@H](C(=O)O)[C@@H](O)[C@H](OS(=O)(=O)O)[C@H]6O)[C@@](C)(CO)[C@@H]5CC[C@]43C)[C@@H]2[C@]1(C)O | Non-toxic | – |
| O[C@H]1CC[C@H]2CN3CCc4c([nH]c5ccccc45)[C@@H]3C[C@@H]2C1 | Non-toxic | – |
| CC1=CC(=O)C[C@](C)(CO[C@@H]2O[C@H](CO)[C@@H](O)[C@H](O)[C@H]2O)[C@@]1(O)/C=C/C(C)=C/C(=O)O | Non-toxic | – |
| COc1cc([C@H](O)[C@H](CO)Oc2c(OC)cc([C@H](O)[C@H](O)CO)cc2OC)ccc1O (mixture of isomers) | Non-toxic | – |
| C[C@](O)(CC(=O)O)CC(=O)OC[C@H]1O[C@@H](OCc2ccccc2)[C@H](O)[C@@H](O)[C@@H]1O | Non-toxic | – |
| O=C1c2c(O)cc(O[C@@H]3O[C@H](CO)[C@@H](O)[C@H](O)[C@H]3O)cc2O[C@]1(O)Cc1ccc(O)cc1 | Non-toxic | – |
| O=c1c(-c2ccc(O)cc2)coc2c([C@@H]3O[C@H](CO)[C@@H](O)[C@H](O)[C@H]3O)c(O)ccc12 [PUERARIN] | Non-toxic | – |
| COC(=O)[C@@H](Cc1ccc(O)c(O)c1)OC(=O)/C=C/c1ccc(OC)c(O)c1 | Non-toxic | – |
| COc1cc(O)c(C(=O)CC(C)C)c2c1[C@@H]1C[C@H](C(C)C)C=C[C@]1(C)O2 | Non-toxic | – |
| O=C1c2c(O)cc(O)cc2O[C@H](c2cc(O)cc(O)c2)[C@H]1O | Non-toxic | – |
